# The NIST ThermoML archive (doi:10.1016/j.fluid.2012.06.017)
# ± gives the expanded uncertainty stated by the source.
# Conditions: Liquid; Pulse-heating method
Critical pressure [kPa],Critical temperature [K],Compound
1140 ± 60,641 ± 12,CC(C)[O-].CC(C)[O-].CC(C)[O-].CC(C)[O-].[Ti+4] [titanium(IV) 2-propanolate]
1070 ± 60,657 ± 14,CC(C)(C)[O-].CC(C)(C)[O-].CC(C)(C)[O-].CC(C)(C)[O-].[Ti+4] [titanium(IV) 2-methylpropan-2-olate]
1310 ± 80,587 ± 12,CC(C)O[Si](OC(C)C)(OC(C)C)OC(C)C [isopropyl silicate ((C3H7O)4Si)]
